Data set [1] has as its system zebrafish larvae. The class given is in vivo. As for the experimental part: (§1) The wild type zebrafish was used for this study.
Zebrafish behaviour was analyzed using a digital video tracking system (Viewpoint ZebraLab system). The system consists of a digital video camera connected to a computer system running the analysis software ZebraLab Man Rev 3.6B.
Moreover, 6-OHDA treatment also markedly altered the swimming behavior of zebrafish. […] Values in FIG. 9 represent the mean±SEM of 12 fish larvae per group of 3-time independent experiments. ###P<0.005 versus control group; *p<0.05, **p<0.01 and *** p<0.005 versus 6-OHDA group. […] The total swimming distance in 10 min travelled by the zebrafish larvae was decreased after exposure to 6-OHDA.

Data set [2] has as its system DA neurons in zebrafish. Nature of the data set: Anti-TH whole-mount immunostaining, 6-OHDA-induced DA neuron loss. It counts as in vivo. Particulars: 3 μM positive control, 250 μM 6-OHDA, 2 days. As for the experimental part:
as §1
Zebrafish at one dpf were exposed to 250 μM 6-OHDA in the presence or absence of 10 μM Schi A or 3 μM nomifensine (Nom, a DAT (dopamine transporter) inhibitor used as a positive control) for 2 days. Then zebrafish were collected for immunostaining to detect the DA neurons. Zebrafish were fixed in 4% paraformaldehyde in PBS for 30 min, rinsed, and stored at −20° C. in 100% MtOH. Whole-mount immunostaining was done by standard methods (Zhang, Cheang et al. 2011). Briefly, paraformaldehyde fixed samples were blocked (2% goat serum and 0.1% BSA in PBST,) for 1 h at room temperature. A mouse monoclonal anti-tyrosine hydroxylase antibody (1:200 diluted in blocking buffer) was used as the primary antibody and incubated overnight with the sample at 4° C. […] Semi-quantification TH^+ cells were assessed by an investigator blinded to drug treatment history of zebrafish using Image-Pro Plus 6.0 software (Media Cybernetics, Silver Spring, Md., USA). Results are expressed as percentage of area of TH^+ cells in untreated control group.
To further evaluate the neuroprotective effect of SchiA in vivo, the inventors examined the DA neurons in zebrafish by whole-mount immunofluorescent staining with an antibody against tyrosine hydroxylase (TH). […] Data is expressed as percentage of the control group. […]

For data set [3], the system named is SH-SY5Y cells. Nature of the data set: MTT cytotoxicity of the five lignans. The class given is cell-based. The protocol:
(§2) Human neuroblastoma SH-SY5Y cells were purchased from the American Type Culture Collection (ATCC, Manassas, Va., USA) and cultured in a humidified 5% (v/v) CO2 atmosphere in 37° C. in Dulbecco's Modified Eagle Medium (DMEM) (Life technologies, NY, USA) supplemented with 10% FBS, 1% penicillin (100 U/mL) and streptomycin (100 μg/mL). All experiments were carried out 48 h after the cells were seeded.
(§3) Cell viability was determined by 3-(4,5-dimethyl-2-thiazolyl) 2,5-diphenyl-2H-tetrazolium bromide (MTT) assay (Sigma-Aldrich, USA). SH-SY5Y cells were seeded in 96-well plates (1×10^4 cells/well) for 48 h. SH-SY5Y cells were pre-treated with different concentrations of the five lignans (i.e. Schizandrin A, Schizandrin B, SC, Schizandrol A and SchiA) for 12 h and the cell viability was checked by MTT assay. Otherwise, SH-SY5Y cells were pre-treated with different concentrations of the five lignans for 12 h and then exposed to 400 μM 6-OHDA for 4 h. Cells were incubated at 37° C. for 4 h in 0.5 mg/mL MTT solution (prepared in serum free DMEM medium). The medium was then removed, and 100 μL of DMSO was added to each well to dissolve the violet-formazan crystals. The absorbance at 570 nm with 655 nm as a reference wavelength was measured by a multi-label counter (Wallac VICTOR3TMV, Perkin Elmer, Netherlands). Cell viability was expressed as a percentage of the value of the cells without 6-OHDA treatment. The LC50 and EC50 were calculated by GraphPad Prism V5.0 (GraphPad Software, Inc., San Diego, Calif.).
To evaluate the cytotoxicity of five selected lignans of S. chinensis, SH-SY5Y cells were treated with various concentrations of the tested compounds for 12 h and the cell viability was measured using the MTT assay.
(§4) To evaluate the cytotoxicity of five selected lignans of S. chinensis, SH-SY5Y cells were treated with various concentrations of the tested compounds for 12 h and the cell viability was measured using the MTT assay. […] To further study the neuroprotective activities of the five lignans in vitro, cells were treated with various concentrations of the tested compounds for 12 h before exposed to MPP^+. […] Values represent mean±S.D. ###P<0.005 versus control group; *p<0.05, **p<0.01 and *** p<0.005 versus MPP group. […] The therapeutic index of SchiA and SC were 14.9 and 8.8, respectively.

Data set [4] relates to SH-SY5Y cells. Kind of data set: MTT neuroprotection against 6-OHDA-induced cytotoxicity. Particulars: for protection against 6-OHDA-induced damage (cell viability): 3, 6, 12, 25, 50 and 100 μM for 12 h before 400 μM 6-OHDA 4 h. The class given is cell-based, Human. As for the experimental part: as §2, §3
To further study the neuroprotective activities of the five lignans against 6-OHDA-induced cytotoxicity, cells were treated with various concentrations (3, 6, 12, 25, 50 and 100 μM) of the tested compounds for 12 h before exposed to 400 μM 6-OHDA for 4 h.

For data set [5], the system named is SH-SY5Y cells. Kind of data set: MTT neuroprotection against MPP+-induced cell damage. It counts as cell-based. Particulars: for protection against MPP+-induced cell damage (cell viability): various concentrations 12 h before MPP+. The protocol:
as §2
In another study, SH-SY5Y cells were seeded in 96-well plates (1×10^4 cells/well) for 48 h. SH-SY5Y cells were pre-treated with different concentrations of the five lignans for 12 h and the cell viability was checked by MTT assay. SH-SY5Y cells were pre-treated with different concentrations of the five lignans for 12 h and then exposed to 2 mM MPP or vehicle for 36 h. Cells were incubated at 37° C. for 4 h in 0.5 mg/mL MTT solution (prepared in serum free DMEM medium). The medium was then discarded and 100 μL of DMSO was added to each well to dissolve the violet-formazan crystals. The absorbance at 570 nm with 655 nm as a reference wavelength was measured by a multi-label counter (Wallac VICTOR3TMV, Perkin Elmer, Netherlands). Cell viability was expressed as a percentage of the value of the cells without MPP treatment. The LC50 and EC50 were calculated by GraphPad Prism V5.0 (GraphPad Software, Inc., San Diego, Calif.).
as §4
The inventors also investigated the contribution of the PI3K/Akt pathway in the neuroprotective effects of SchiA. The inventors measured phosphorylation-Akt (p-Akt) levels after pre-treated with 60 μM SchiA for 12 h and then exposed to 2 mM MPP for another 36 h. […] And MPP^+-induced down-regulation of Akt expressions was inhibited by SchiA treatment. […] To further validate whether the activation of PI3K/Akt signaling pathway, the inventors determined the blocking effect of PI3K/Akt inhibitor such as AKT inhibitor IV on the in vitro neuroprotective effect of SchiA. SH-SY5Y cells were pre-incubated with Akt inhibitor IV (2 μM) for 1 h and then treated with SchiA for 12 h. Drug-treated cells were further treated with 2 mM MPP for another 36 h, MTT assay was used to determinate cell viability.

Data set [6] deals with TH-positive neurons in the SNpc. The class given is in vivo, C57BL/6 mice. Particulars: 10 mg/kg/day i.g. positive control, then MPTP. The protocol: Male C57BL/6 mice (20±2 g body weight, 6-8 weeks of age) were purchased from the Laboratory Animal Center of Guangdong Province and were fed six animals per cage, under a 12 h light/dark cycle with ad libitum access to food and water. Mice were handled daily and allowed 3 days to acclimate before each treatment. Six groups of mice (n=7/group, total 42 mice) were assigned for the neuroprotective study in vivo. SchiA at different concentrations (30, 100 or 300 mg/kg/day), positive control drug (Selegiline, 10 mg/kg/day) or vehicle (Tween-80/ml propylene glycol/alcohol/5% PVA, 1:1:1:17, v/v/v/v) were administered by intragastric gavage (i.g.) daily for 14 days. Then mice were injected by intraperitoneal (i.p.) with 30 mg/kg MPTP hydrochloride (Sigma-Aldrich) or physiological saline daily on days 15-19 (total 5 days). In order to allow for the full conversion of MPTP to its active metabolite MPP^+, a further 3 days of resting period followed (Levites, Weinreb et al. 2001). All animal experiments were conducted according to the ethical guidelines for animal experiment of Jinan University. The experimental protocols were approved by the Ethics Committee for Animal Experiments of Jinan University (permit number 20110810).
Three days after MPTP treatment, animals were anesthetized by i.p. administration of […] chloral hydrate (10% (w/v) dissolved in distilled water) and perfused intracardially with 100 mL PBS (0.1 mmol/L, pH 7.4) followed by 150 mL 4% paraformaldehyde (PFA) in PBS. After intracardial perfusion, brains were collected and post-fixed in 4% PFA for another 24 h at 4° C., embedded in paraffin, and cut into 6 μm coronal sections encompassing the entire SNpc. As the decrease of TH-positive neurons in response to MPTP treatment is the most prominent at medial levels of the SNpc (Hayley, Crocker et al. 2004), the inventors selected the sections from the area encompassed between −3.08 and −3.20 from bregma to perform immunohistochemisty. Immunohistochemistry of brain tissues was performed as previously described (He, Yamauchi et al. 2008; Yokoyama, Takagi et al. 2008) with minor modifications. Sections were deparaffinized in xylene and rehydrated in a graded ethanol series. […] Non-specific protein binding was blocked with 10% bovine serum in PBS (0.01 M, pH 7.4). Between each treatment, the slides were washed at least three times with deionized water for 5 minutes. […] The results were analyzed by counting the numbers of TH-positive cells at ×10 magnifications on a stereomicroscope (BX51, Olympus Corp. Japan). TH-positive cells in 6 position-matched sections of each mouse were counted manually by operator who was blinded to the drug treatment. […]

Where two headings read alike, the source gives them in different places.

For the compound `N[C@@H](Cc1ccc(O)c(O)c1)C(=O)O` [L-dopa], the “deficit of locomotor activity of 6-OHDA-treated zebrafish” value in data set [1] (150 μM positive control with 6-OHDA) is on record as “rescued the deficit of locomotor activity of 6-OHDA-treated zebrafish to normal”.
Regarding `CN1Cc2c(N)cccc2C(c2ccccc2)C1` (stereo not shown) [Nomifensine, nomifensine, reference compound], the “6-OHDA-induced dopaminergic neuron loss (area of TH+ cells)” value in data set [2] is on record as “considerable protection”. Further, the “deficit of locomotor activity of 6-OHDA-treated zebrafish” value in data set [1] (3 μM positive control with 6-OHDA) was “rescued the deficit of locomotor activity of 6-OHDA-treated zebrafish to normal”.
The EC50 is the midpoint of the concentration-response curve. On to `COc1c2c(cc3c1-c1c(cc4c(c1OC)OCO4)C[C@H](C)[C@H](C)C3)OCO2` [SC, Schizandrin C], for which the CC50 in data set [3] (treated 12 h, MTT, read-out: LC50 (the source's name)) was found to be 135 µM. Moreover, the “protection against 6-OHDA-induced damage (cell viability)” value in data set [4] was “protected SH-SY5Y cells against 6-OHDA-induced damage in a dose-dependent manner”. In addition, the EC50 in data set [4] (pre-treated 12 h, then 400 μM 6-OHDA 4 h) was found to be 15.3 µM; in data set [5] (pre-treated 12 h, then 2 mM MPP+ 36 h), 15.3 µM. The “protection against MPP+-induced cell damage (cell viability)” value in data set [5] is given as “protect against MPP^+-induced cell damage in a dose-dependent manner”.
The compound `COc1cc2c(c(OC)c1OC)-c1c(cc(OC)c(OC)c1OC)C[C@H](C)[C@H](C)C2` [Schizandrin A, reference compound] yielded a CC50 in data set [3] of 233 µM. For the same compound, the “protection against 6-OHDA-induced damage (cell viability)” value in data set [4] is listed as “did not show protective effects”. For the same compound, the “protection against MPP+-induced cell damage (cell viability)” value in data set [5] is recorded as “did not show protective effects”.
For the compound `COc1cc2c(c(OC)c1OC)-c1c(cc3c(c1OC)OCO3)CC(C)C(C)C2` (stereo not shown) [Schizandrin B, reference compound], the CC50 in data set [3] stood at 189 µM. Besides, in data set [4], the “protection against 6-OHDA-induced damage (cell viability)” value was “did not show protective effects”. The “protection against MPP+-induced cell damage (cell viability)” value in data set [5] is “did not show protective effects”.
On to `COc1cc2c(c(OC)c1OC)-c1c(cc(OC)c(OC)c1OC)C[C@](C)(O)[C@@H](C)C2` [Schizandrol A, reference compound], for which the CC50 in data set [3] worked out at 155 µM. Besides, in data set [4], the “protection against 6-OHDA-induced damage (cell viability)” value is given as “did not show protective effects”. Besides, the “protection against MPP+-induced cell damage (cell viability)” value in data set [5] was “did not show protective effects”.
For the compound `C#CCN(C)[C@H](C)Cc1ccccc1` [selegiline, reference compound], the “TH-positive neurons in SNpc” value in data set [6] is recorded as 80±15 cells/section.
For the compound AKT inhibitor IV [reference compound], in data set [5] (2 μM 1 h pre-incubation, then SchiA 12 h, 2 mM MPP+ 36 h, MTT), the “effect on the protective effect of SchiA on MPP+-induced cytotoxicity” value is given as “clearly abrogate the protective effect of SchiA”.

For the origin of these results see patent publication US20150366839A1, “Schisantherin A for the treatment of neurodegenerative diseases” (priority 2014, published 2015).
